According to patent publication US20100099762A1, “COMBINATION THERAPY” (THE MENTAL HEALTH RESEARCH INSTITUTE OF VICTORIA, priority 2006, published 2010):

Assays:
[1] = system: bipolar disorder; assay: Double blind randomised placebo controlled trial of NAC in addition to treatment as usual in bipolar disorder; format: in vivo, human
Source text: Consented individuals were assigned using simple randomization (Beller et al., 2002) to treatment with NAC or placebo in addition to treatment as usual, in a double-blind fashion. The nature and dose of the primary therapy was monitored. The person generating the randomisation schedule was not involved in any aspect of participant interview. The investigators, clinicians and statisticians were blind to treatment allocation until the data analysis was completed. The study was registered with the Australian Clinical Trials Registry (Protocol #12605000362695). Participants were recruited through advertisements, their private psychiatrists and database screening. All participants provided written informed consent. The trial setting was in the public and private outpatient psychiatry clinics of the participating centers. The trial was approved by each participating research and ethics committee (Barwon Health, Southwest Area Mental Health Service, Bendigo Health, all in Victoria, Australia), and was conducted according to Good Clinical Practice guidelines.
All randomized participants received two NAC (500 mg) capsules twice daily (2 g daily), or matching placebo. We selected a daily dose that was at the upper dosing range for published clinical trials of oral NAC of 12 weeks to 12 months duration, and that reported evidence of tolerability and some efficacy (Adair et al., 2001; Van Schooten et al., 2002; Behr et al., 2002; Demedts et al., 2005).
Individuals needed to meet DSM-IV criteria for bipolar disorder (I or II) with at least 1 documented episode of illness (depressive, manic or mixed) in the previous 6 months, and had to have been on stable therapy for at least 1 month prior to randomisation. Participants were required to have the capacity to consent to the study and comply with study procedures, and utilise effective contraception where indicated.
Exclusion criteria included individuals with a known or suspected clinically relevant systemic medical disorder, including asthma, bronchospasm, or respiratory insufficiency, recent gastrointestinal ulcers, and individuals who were pregnant or lactating. Individuals taking greater than 500 mg of NAC/day, 200 μg of selenium/day or 500 IU of Vitamin E/day were excluded, as were those with a history of anaphylaxis with NAC or any component of the preparation. Inability to comply with either the requirements of informed consent or the treatment protocol was also an exclusion criterion.
Withdrawal from the study occurred if participants ceased taking their trial medication for 7 consecutive days, stopped effective contraception or became pregnant. Dose changes to existing medications, or the addition or removal of an agent were accepted, and participants were allowed to continue with the study. Participants were withdrawn from the study if they revoked their consent or developed serious adverse events associated with the study drug, which could occur either at the request of the patient or the discretion of the investigator.
Participants were assessed at baseline using a structured clinical interview (MINI-plus) and underwent a physical examination. Clinical status was assessed using the MADRS, BDRS, YMRS, CGI-Improvement and Severity scales for bipolar disorder (CGI-I-BP, CGI-S-BP), GAF, SOFAS, SLICE/LIFE, LIFE RIFT, and Q-LES-Q.
These scales were repeated 2 weekly for the first 4 weeks and 4-weekly thereafter for a total of 24 weeks, or on the day of study termination if the patient withdrew prior to the final scheduled visit. A follow-up visit was conducted 4 weeks (±2 weeks) after the trial completion, either at trial endpoint (week 24), or premature discontinuation, to determine any change in clinical status on treatment discontinuation.
Time to any intervention for mood symptoms was a further outcome measure. […]

[2] = system: plasma glutathione; assay: Parallel study of plasma glutathione at the trial dose of NAC; format: in vivo; settings: NAC at this dose (2 g daily)
[3] = NAC 2 g daily plus treatment as usual, week 24
[4] = post-treatment discontinuation (washout, week 28)
[5] = week 24, MMRM, between treatment group LS mean difference

CC(=O)N[C@@H](CS)C(=O)O [NAC, N-acetyl cysteine]
BDRS: End point to Week 24 (Mean ± SD), NAC [1, 3]: 6.7 (6.4) | CGI-I-BP: End point to Week 24 (Mean ± SD), NAC [1, 3]: 3.1 (1.6) | CGI-I-D: End point to Week 24 (Mean ± SD), NAC [1, 3]: 3.2 (1.6) | CGI-I-M: End point to Week 24 (Mean ± SD), NAC [1, 3]: 3.7 (1.1) | CGI-S-BP: End point to Week 24 (Mean ± SD), NAC [1, 3]: 2.5 (1.2) | CGI-S-D: End point to Week 24 (Mean ± SD), NAC [1, 3]: 2.3 (1.1) | CGI-S-M: End point to Week 24 (Mean ± SD), NAC [1, 3]: 1.9 (1.2) | GAF: End point to Week 24 (Mean ± SD), NAC [1, 3]: 71.3 (13.9) | LIFE-RIFE: End point to Week 24 (Mean ± SD), NAC [1, 3]: 8.9 (3.3) | MADRS: End point to Week 24 (Mean ± SD), NAC [1, 3]: 6.6 (7.4) | Q-LES-Q: End point to Week 24 (Mean ± SD), NAC [1, 3]: 59.2 (12.7) | SLICE-LIFE: End point to Week 24 (Mean ± SD), NAC [1, 3]: 14.9 (5.2) | SOFAS: End point to Week 24 (Mean ± SD), NAC [1, 3]: 73.7 (13.4) | YMRS: End point to Week 24 (Mean ± SD), NAC [1, 3]: 2.1 (3.3) | Adverse event: headaches ([1]; NAC group, placebo 8%): 18% | Adverse event: heartburn ([1]; NAC group, placebo 8%): 16% | Adverse event: increased pain in joints ([1]; NAC group, placebo 8%): 16% | Adverse event: changed energy ([1]; NAC group, placebo 27%): 21% | Time to a mood episode (Kaplan Meier) ([1]; NAC versus placebo, log-rank test): did not reveal any significant differences | Effect sizes (Cohen's d) on all rating scales ([1]; after 24 weeks of NAC treatment): moderate to large effects | Treatment benefit at the post discontinuation visit ([1]; any of the scales, week 28): not evident | Adverse events, NAC group compared to placebo group ([1]; checklist of 44 somatic items): No reported event was significantly more common | Serious adverse events (SAE) in the group ([1]; of the 7 reported, 4 in placebo group): 3 | BDRS: Post-treatment to Week 28 (Mean ± SD), NAC [1, 4]: 12.1 (10.8) | CGI-I-BP: Post-treatment to Week 28 (Mean ± SD), NAC [1, 4]: 3.5 (1.5) | CGI-I-D: Post-treatment to Week 28 (Mean ± SD), NAC [1, 4]: 3.7 (1.7) | CGI-I-M: Post-treatment to Week 28 (Mean ± SD), NAC [1, 4]: 3.7 (1.0) | CGI-S-BP: Post-treatment to Week 28 (Mean ± SD), NAC [1, 4]: 3.1 (1.5) | CGI-S-D: Post-treatment to Week 28 (Mean ± SD), NAC [1, 4]: 3.1 (1.7) | CGI-S-M: Post-treatment to Week 28 (Mean ± SD), NAC [1, 4]: 1.9 (0.9) | GAF: Post-treatment to Week 28 (Mean ± SD), NAC [1, 4]: 66.6 (14.7) | LIFE-RIFE: Post-treatment to Week 28 (Mean ± SD), NAC [1, 4]: 10.8 (4.2) | MADRS: Post-treatment to Week 28 (Mean ± SD), NAC [1, 4]: 12.2 (11.6) | Q-LES-Q: Post-treatment to Week 28 (Mean ± SD), NAC [1, 4]: 52.8 (11.4) | SLICE-LIFE: Post-treatment to Week 28 (Mean ± SD), NAC [1, 4]: 17.2 (6.0) | SOFAS: Post-treatment to Week 28 (Mean ± SD), NAC [1, 4]: 66.9 (16.2) | YMRS: Post-treatment to Week 28 (Mean ± SD), NAC [1, 4]: 2.8 (3.4) | Response, defined as a 50% reduction in total MADRS score, participants ([1]; week 20 compared to baseline, placebo 21): 46% | CGI-I-BP: NAC-Placebo at Endpoint LS Mean [1, 5]: −0.67 | CGI-I-D: NAC-Placebo at Endpoint LS Mean [1, 5]: −0.62 | CGI-I-M: NAC-Placebo at Endpoint LS Mean [1, 5]: −0.05 | CGI-S-D: NAC-Placebo at Endpoint LS Mean [1, 5]: −0.67 | CGI-S-M: NAC-Placebo at Endpoint LS Mean [1, 5]: −0.03 | Response, defined as a 50% reduction in total MADRS score, participants ([1]; week 24 compared to baseline, placebo 18): 51% | Plasma glutathione [2]: significantly increased
